EP4603105A1, “PHARMACEUTICAL COMPOSITION CONTAINING CYCLIC COMPOUND HAVING SELECTIVE KRAS INHIBITORY EFFECT AGAINST HRAS AND NRAS” (CHUGAI SEIYAKU KABUSHIKI KAISHA, priority 2022, dated 2024)
pIC50: −log10 of the molar value. *1 amine or outer side, *2 acyl side, *3 side chain or, on linkers, in order; H or OH if unused. Where a SMILES comes first, the peptide text is derived from it. Bridges are numbered along the chain shown (N, C = ends). [ ]: non-standard residue; d: D form. The star is where a group is joined. hPhe(3,5-F2-4-CF3) = N[C@@H](CCc1cc(F)c(C(F)(F)F)c(F)c1)C(=O)O; hPhe(3-Cl-4-CF3) = N[C@@H](CCc1ccc(C(F)(F)F)c(Cl)c1)C(=O)O; NPrPhe(4-CF3) = CCCN[C@@H](Cc1ccc(C(F)(F)F)cc1)C(=O)O; X41 = CCCN([C@@H](Cc1ccc(OC)cc1)C(=O)[*:2])[*:1]; NMePhe(4-Me) = CN[C@@H](Cc1ccc(C)cc1)C(=O)O; NMeGly(cPent) = CN[C@H](C(=O)O)C1CCCC1; NMeD = CN[C@@H](CC(=O)O)C(=O)O; NMeL = CN[C@@H](CC(C)C)C(=O)O; Morpholide = C1CN(*)CCO1; NMeA = CN[C@@H](C)C(=O)O; NMeAib = CNC(C)(C)C(=O)O; Nle = CCCC[C@H](N)C(=O)O; Piperidide = C1CCN(*)CC1; Ac5c = NC1(C(=O)O)CCCC1; Aze = O=C(O)[C@@H]1CCN1; Sar = CNCC(=O)O

Legend:
HRAS wild-type protein = HRAS wild-type protein (Homo sapiens, UniProt P01112); experiment: Binding to HRAS by surface plasmon resonance (SPR), KD and KD ratio to KRAS
Chain of HRAS wild-type protein (P01112 whole entry): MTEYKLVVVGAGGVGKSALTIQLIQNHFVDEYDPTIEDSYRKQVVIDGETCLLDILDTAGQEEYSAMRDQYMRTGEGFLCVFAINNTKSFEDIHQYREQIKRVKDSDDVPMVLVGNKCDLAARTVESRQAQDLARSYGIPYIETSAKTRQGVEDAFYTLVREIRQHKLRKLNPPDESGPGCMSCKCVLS
Outline: (§1)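 Biotinylated GDP-bound RAS was captured at about 100–300 RU. Running buffer: HBS pH 7.4, 10 mM MgCl2, 10 µM GDP, 1 mM DTT, 0.01% Tween 20, 4% DMSO.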

[1] = molecular target: GDP-bound NRAS wild-type protein (Homo sapiens, UniProt P01111); experiment: Binding to NRAS by surface plasmon resonance (SPR), KD and KD ratio to KRAS
Chain of GDP-bound NRAS wild-type protein (P01111 whole entry): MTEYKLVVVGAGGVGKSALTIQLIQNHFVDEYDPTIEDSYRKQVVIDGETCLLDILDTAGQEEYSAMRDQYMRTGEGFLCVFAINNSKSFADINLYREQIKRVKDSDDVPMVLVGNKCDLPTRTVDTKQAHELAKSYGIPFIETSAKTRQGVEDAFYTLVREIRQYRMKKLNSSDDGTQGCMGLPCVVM
Outline: as §1

[2] = tested on: human lung cancer strain NCI-H441; assay type: cell-based
Outline: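 Step one: dispense the test compound in serial DMSO dilutions. Step three: add the reagent and measure […].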

[3] = ratio of the KD value with respect to HRAS wild-type protein to the KD value with respect to KRAS
[4] = ratio of the KD value with respect to GDP-bound NRAS wild-type protein to the KD value with respect to KRAS
[5] = ratio of KD for HRAS wild-type protein to KD for KRAS
[6] = ratio of KD for GDP-bound NRAS wild-type protein to KD for KRAS

| pIC50 [2] | Structure (SMILES) | HRAS /KRAS (HRAS wild-type protein; [3]) | NRAS /KRAS [1, 4] | HRAS /KRAS (HRAS wild-type protein; ratio of KD value for HRAS wild-type protein to KD value for KRAS (SPR)) | NRAS /KRAS ([1]; ratio of KD value for GDP-bound NRAS wild-type protein to KD value for KRAS (SPR)) | HRAS /KRAS (HRAS wild-type protein; [5]) | NRAS /KRAS [1, 6] |
| --- | --- | --- | --- | --- | --- | --- | --- |
| 7.72 | C#CC[C@H]1C(=O)N[C@@H]([C@@H](C)CC)C(=O)N(C)CC(=O)N(C)[C@H]2CCCCCN(C2=O)[C@@H](Cc2ccc(C(F)(F)F)cc2)C(=O)N(C)CC(=O)N[C@@H](CCc2cc(F)c(C(F)(F)F)c(F)c2)C(=O)N2C[C@H](OCC)C[C@H]2C(=O)NC2(CCC2)C(=O)N(C)[C@@H](C2CCCC2)C(=O)N(C)[C@H](C(=O)N(C)C)CC(=O)N1C [PP0666] | B (a compound having 3 or more and less than 10 is denoted as B) | B (a compound having 3 or more and less than 10 is denoted as B) |  |  |  |  |
| 8.34 | CCO[C@@H]1C[C@H]2C(=O)NC3(CC(C)(C)C3)C(=O)N(C)[C@@H](C3CCCC3)C(=O)N(C)[C@H](C(=O)N(C)C)CC(=O)N(C)[C@@H](C)C(=O)N[C@@H]([C@@H](C)CC)C(=O)N(C)CC(=O)N(C)[C@H]3C/C=C\CCN(C3=O)[C@@H](Cc3ccc(C(F)(F)F)cc3)C(=O)N(C)CC(=O)N[C@@H](CCc3cc(F)c(C(F)(F)F)c(F)c3)C(=O)N2C1 [PP1641] |  |  | A (a compound having 10 or more and less than 20 is denoted as A) | A (a compound having 10 or more and less than 20 is denoted as A) |  |  |
| 7.58 | CCCN1C(=O)CN(C)C(=O)CN(C)C(=O)[C@H]([C@@H](C)CC)NC(=O)[C@H](CC(C)C)N(C)C(=O)C[C@@H](C(=O)N2CCOCC2)N(C)C(=O)[C@H](C2CCCC2)N(C)C(=O)C2(CCCC2)NC(=O)[C@@H]2CCCN2C(=O)[C@H](CCc2ccc(C(F)(F)F)c(Cl)c2)NC(=O)CN(C)C(=O)[C@@H]1Cc1ccc(OC)cc1 [PP0135] ([NMeL]I[Sar][Sar][X41][Sar][hPhe(3-Cl-4-CF3)]P[Ac5c][NMeGly(cPent)][NMeD]-Morpholide; lactam N-11) |  |  |  |  | C (A compound having a KD ratio of 0.1 or more and less than 3 is denoted as C) | B (a compound having 3 or more and less than 10 is denoted as B) |
| 8.08 | CCCN(C)C(=O)[C@@H]1CC(=O)N(C)[C@@H](C(C)C)C(=O)N[C@@H]([C@@H](C)CC)C(=O)N(C)CC(=O)N(C)[C@H]2C/C=C\CCN(C2=O)[C@@H](Cc2ccc(C(F)(F)F)cc2)C(=O)N(C)CC(=O)N[C@@H](CCc2ccc(C(F)(F)F)c(OC)c2)C(=O)N2C[C@H](OCC)C[C@H]2C(=O)NC2(CCC2)C(=O)N(C)[C@@H](C2CCCC2)C(=O)N1C [PP2020] | A (a compound having 10 or more and less than 20 is denoted as A) | A (a compound having 10 or more and less than 20 is denoted as A) |  |  |  |  |
| 8.09 | CCCN1C(=O)CN(C)C(=O)CN(C)C(=O)[C@H]([C@@H](C)CC)NC(=O)[C@H](CC(C)C)N(C)C(=O)C[C@@H](C(=O)N2CCOCC2)N(C)C(=O)[C@H](C2CCCC2)N(C)C(=O)C2(CCCC2)NC(=O)[C@@H]2CCCN2C(=O)[C@H](CCc2cc(F)c(C(F)(F)F)c(F)c2)NC(=O)CN(C)C(=O)[C@@H]1Cc1ccc(C(F)(F)F)cc1 [PP0753] ([NMeL]I[Sar][Sar][NPrPhe(4-CF3)][Sar][hPhe(3,5-F2-4-CF3)]P[Ac5c][NMeGly(cPent)][NMeD]-Morpholide; lactam N-11) | C (A compound having a KD ratio of 0.1 or more and less than 3 is denoted as C) | B (a compound having 3 or more and less than 10 is denoted as B) |  |  |  |  |
| 8.16 | CC[C@H](C)[C@@H]1NC(=O)[C@@H]2CCCc3ccc(cc3)C[C@@H](C(=O)N(C)CC(=O)N[C@@H](CCc3ccc(C(F)(F)F)c(OC)c3)C(=O)N3CC4(CC4)C[C@H]3C(=O)NC3(CC(C)(C)C3)C(=O)N(C)[C@@H](C3CCCC3)C(=O)N(C)[C@H](C(=O)N(C)CC)CC(=O)N2C)N2CC/C=C\C[C@@H](C2=O)N(C)C(=O)CN(C)C1=O [PP3087] |  |  |  |  | B (a compound having 3 or more and less than 10 is denoted as B) | A (a compound having 10 or more and less than 20 is denoted as A) |

| Structure (SMILES) | pIC50 [2] | HRAS /KRAS (HRAS wild-type protein; [3]) | NRAS /KRAS [1, 4] | HRAS /KRAS (HRAS wild-type protein; ratio of KD value for HRAS wild-type protein to KD value for KRAS (SPR)) | NRAS /KRAS ([1]; ratio of KD value for GDP-bound NRAS wild-type protein to KD value for KRAS (SPR)) | HRAS /KRAS (HRAS wild-type protein; [5]) | NRAS /KRAS [1, 6] |
| --- | --- | --- | --- | --- | --- | --- | --- |
| CCCC[C@@H]1NC(=O)[C@H](CCc2ccc(C(F)(F)F)c(Cl)c2)NC(=O)CN(C)C(=O)[C@H](Cc2ccc(C)cc2)N(C)C(=O)[C@@H]2CCN2C(=O)[C@H](C)N(C)C(=O)[C@H]([C@@H](C)CC)NC(=O)[C@H](CC(C)C)N(C)C(=O)C[C@@H](C(=O)N2CCCCC2)N(C)C(=O)[C@H](CC(C)C)NC(=O)C(C)(C)N(C)C1=O [PP0047] ([NMeL]I[NMeA][Aze][NMePhe(4-Me)][Sar][hPhe(3-Cl-4-CF3)][Nle][NMeAib]L[NMeD]-Piperidide; lactam N-11) | 6.64 |  |  |  |  | C (A compound having a KD ratio of 0.1 or more and less than 3 is denoted as C) | C (A compound having a KD ratio of 0.1 or more and less than 3 is denoted as C) |
